# US20210023029A1, “EDASALONEXENT DOSING REGIMEN FOR TREATING MUSCULAR DYSTROPHY” (Catabasis Pharmaceuticals, Inc., priority 2017, published 2021)
# Entries after “also recorded” stand apart in the source; their conditions may differ. Read-outs that look alike come from different tables or passages of the source.
# Legend:
# boys with DMD [1] = assay: MoveDMD trial: safety and tolerability; format: in vivo, human
# Protocol: The MoveDMD trial (see FIG. 10) was designed to evaluate efficacy, safety/tolerability, pharmacokinetics (PK), pharmacodynamics (PD), and dose response of edasalonexent. The first phase portion of the MoveDMD trial was a 1-week study to evaluate the safety, PK, and PD at 33 and 67 mg/kg/day, given in 2 divided doses, and 100 mg/kg/day given in 3 divided doses. The second phase and the open-label extension (OLE) portions of the MoveDMD trial enrolled boys ages 4 through 7 with DMD. Phase 2 was a 12-week placebo-controlled study with two cohorts given 33 mg/kg twice daily (BID; 67 mg/kg/day; n=10) or 33 mg/kg three times daily (TID; 100 mg/kg/day; n=10), and a placebo cohort (n=10). Patients in the OLE continued with either dose regimen of edasalonexent.
# boys with DMD [2] = assay: MoveDMD trial: NSAA and timed function tests in boys with DMD; format: in vivo, human
# Protocol: The MoveDMD trial (see FIG. 10) was designed to evaluate efficacy, safety/tolerability, pharmacokinetics (PK), pharmacodynamics (PD), and dose response of edasalonexent. The first phase portion of the MoveDMD trial was a 1-week study to evaluate the safety, PK, and PD at 33 and 67 mg/kg/day, given in 2 divided doses, and 100 mg/kg/day given in 3 divided doses. The second phase and the open-label extension (OLE) portions of the MoveDMD trial enrolled boys ages 4 through 7 with DMD. Phase 2 was a 12-week placebo-controlled study with two cohorts given 33 mg/kg twice daily (BID; 67 mg/kg/day; n=10) or 33 mg/kg three times daily (TID; 100 mg/kg/day; n=10), and a placebo cohort (n=10). Patients in the OLE continued with either dose regimen of edasalonexent. The North Star Ambulatory Assessment (NSAA) is a validated functional scale specifically designed for ambulant boys with DMD and measures overall function in young boys. […] The 10-meter walk/run, 4-stair climb, and time to stand are all timed tests used as a measure of function in boys with DMD. In each of these tests, as shown in FIGS. 15-17, the average rate of change of speed by study subjects in completing these physical tasks stabilized during the 60 week 100 mg/kg/day edasalonexent treatment period as compared with the rate of change during the off-treatment control period (36 weeks preceding the treatment period). All timed function test values stabilized during the treatment period.
# [3] = tested on: NF-κB regulated and inflammation-related gene transcripts; assay: MoveDMD trial: NF-κB regulated and inflammation-related gene transcripts in whole blood (RNA sequencing); format: in vivo, human; conditions: one week treatment
# Protocol: To determine the effects of a given edasalonexent dosing regimen on NF-κB inhibition, the expression levels of a number of NF-κB regulated and inflammation-related gene transcripts were measured in whole blood samples from DMD patients.
# NF-kB regulated and inflammation-related genes were chosen from the Broad Institute's HALLMARK TNF/NF-kB gene set (Liberzon, et. al., (2015), Cell Systems, 1(6):417-425). Blood was drawn from DMD boys before and one-week after edasalonexent treatment, and collected into PAXgene RNA tubes (Qiagen). RNA was extracted and sequenced to directly measure the abundance of transcripts in whole blood for both time points in each patient, and the abundance of transcripts one-week post treatment was compared to pre-treatment values to determine the relative change in each of the selected transcripts. This ratio for each gene across all patients within a dose cohort was averaged and is shown in FIG. 12 by columns as average +/−SEM. A value less than 1 indicates a decrease in the transcripts after one-week treatment with edasalonexent.
# NF-κB = conditions: dog model of DMD; cited from earlier work
# [4] = Edasalonexent dosing regimen pharmacokinetics in C57BL/6 mice (diet or oral gavage, LC/MS/MS); format: in vivo; conditions: for AUC / Cmax / Tmax / AUC(0-t): C57BL/6, mouse; for AUC(0-t): read-out: AUC0-24 h, day 3 (±SE)
# Protocol: C57BL/6 mice were administered edasalonexent in their diet and/or by oral gavage. Pharmacokinetic (PK) modeling was used to identify suitable dosing amounts and timing in relation to the doses of 67 mg/kg/day and 100 mg/kg/day that have been tested in edasalonexent human clinical trials. Specifically, mice were administered 1.5% edasalonexent in their diet, 450 mg/kg/day delivered orally as single daily dose, 450 mg/kg/day delivered orally as three equally divided doses, or 600 mg/kg/day delivered orally as two 150 mg/kg/doses and one 300 mg/kg/dose. For dosing regimens with three daily doses, doses were delivered at 7:00 am, noon and 5:00 pm.
# The dosing regimens for each group are depicted in TABLE 1. Each group included 12 mice.
# For animals administered edasalonexent in their diet, edasalonexent concentration was measured by LC/MS/MS every 4 hours for 24 hours, beginning on the seventh day of dosing. For animals administered edasalonexent orally, edasalonexent concentration was measured by LC/MS/MS at 0.25, 0.5, 1, 2, 4, 6 and 24 hours after dosing, beginning on the third day of dosing.
# [5] = 100 mg/kg/day versus 133 mg/kg/day (33/33/67 mg/kg)
# [6] = 100 mg/kg/day, 60 weeks, compared to 36 week off-treatment control period
# [7] = gastrocnemius, 1.5% edasalonexent in diet (group 1)
compound,measurement,setting,value
"CC/C=C\C/C=C\C/C=C\C/C=C\C/C=C\C/C=C\CCC(=O)NCCNC(=O)c1ccccc1O [edasalonexent, N-(2-[(4Z,7Z,10Z,13Z,16Z,19Z)-docosa-4,7,10,13,16,19-hexaenamido]ethyl)-2-hydroxybenzamide]",nature of the majority of adverse events,"boys with DMD [1]; 100 mg/kg, study subjects",mild in nature and mostly gastrointestinal
same,safety findings,"boys with DMD [1]; 100 mg/kg, study subjects",no adverse findings
same,tolerability,"boys with DMD [1]; 100 mg/kg, study subjects",well tolerated
same,"trends in hematology, chemistry, renal or adrenal function, calcium or phosphate levels","boys with DMD [1]; 100 mg/kg, study subjects",No adverse trends
same,side effects compared to the 133 mg/kg/day dosing regimen,boys with DMD [1]; [5],fewer side effects
same,heart rate,boys with DMD [1]; study subjects over the 60 week study period,decreased toward age normative values
same,height and weight,"boys with DMD [1]; study subjects over the treatment period, CDC Growth Chart percentiles",age appropriate increases
same,muscle function and DMD disease progression,"boys with DMD [2]; 33 mg/kg TID (100 mg/kg/day), 60 weeks, compared to off-treatment control period",clinically meaningful slowing of disease progression; also recorded: preservation of muscle function and slowing of DMD disease progression
same,efficacy compared to the 133 mg/kg/day dosing regimen,boys with DMD [2]; [5],equally effective
same,"4-stair climb, average rate of change of speed",boys with DMD [2]; [6],stabilized
same,"10-meter walk/run, average rate of change of speed",boys with DMD [2]; [6],stabilized
same,"North Star Ambulatory Assessment (NSAA) score, rate of change",boys with DMD [2]; [6],stabilized
same,"time to stand, average rate of change of speed",boys with DMD [2]; [6],stabilized
same,treatment effects,"boys with DMD [2]; boys affected by DMD enrolled at age 4-7, MoveDMD phase 2 trial and open-label extension",positive treatment effects
same,"change in 24 NF-κB regulated and inflammation-related gene transcripts, Day 7 versus Day 1",[3]; 33 mg/kg/day,decreases were generally not noted
same,"change in 24 NF-κB regulated and inflammation-related gene transcripts, Day 7 versus Day 1",[3]; 67 mg/kg/day,not so pronounced
same,"change in 24 NF-κB regulated and inflammation-related gene transcripts, Day 7 versus Day 1",[3]; 100 mg/kg/day,statistically significant decrease in all 24 transcripts; also recorded: most effective
same,"NF-κB activity (binding of p65 subunit to DNA, secretion of TNF-α)",NF-κB,decreases NF-κB activity
same,AUC,"[4]; po, 1.5 % in diet, gastrocnemius, 1.5% edasalonexent in diet (group 1)",7620 ng·h/mL
same,Cmax,"[4]; po, 1.5 % in diet, gastrocnemius, 1.5% edasalonexent in diet (group 1), read-out: Cmax",532 ng/mL
same,AUC,"[4]; po, 1.5 % in diet, plasma, 1.5% edasalonexent in diet (group 1)",524 ng·h/mL
same,Cmax,"[4]; po, 1.5 % in diet, plasma, 1.5% edasalonexent in diet (group 1), read-out: Cmax",44.6 ng/mL
same,Tmax,"[4]; plasma, group 2, oral QD 450 mg/kg/dose, day 3",30 min
same,Cmax,"[4]; plasma, group 2, oral QD 450 mg/kg/dose, day 3, read-out: Cmax (±SE)",604 ± 83.3 ng/mL
same,AUC(0-t),"[4]; plasma, group 2, oral QD 450 mg/kg/dose",1320 ng·h/mL
same,Tmax,"[4]; plasma, group 3, oral TID 150 mg/kg/dose = 450 mg/kg/day, day 3",30 min
same,Cmax,"[4]; plasma, group 3, oral TID 150 mg/kg/dose = 450 mg/kg/day, day 3, read-out: Cmax (±SE)",452 ± 47.6 ng/mL
same,AUC(0-t),"[4]; plasma, group 3, oral TID 150 mg/kg/dose = 450 mg/kg/day",1360 ± 211 ng·h/mL
same,Tmax,"[4]; plasma, group 4, oral TID 150/150/300 mg/kg/dose = 600 mg/kg/day, day 3",30 min
same,Cmax,"[4]; plasma, group 4, oral TID 150/150/300 mg/kg/dose = 600 mg/kg/day, day 3, read-out: Cmax (±SE)",278 ± 46.3 ng/mL
same,AUC(0-t),"[4]; plasma, group 4, oral TID 150/150/300 mg/kg/dose = 600 mg/kg/day",2270 ± 587 ng·h/mL
same,Cmean,[4]; [7],332.8 ng/mL
same,Cmin,[4]; [7],149.4 ng/mL
same,AUC of single daily 450 mg/kg dose relative to edasalonexent in diet,"[4]; group 2 (450 mg/kg QD) versus group 1 (1.5% in diet), plasma",~2.5 fold
same,Cmin,"[4]; plasma, 1.5% edasalonexent in diet (group 1)",10.7 ng/mL
same,Cmean,"[4]; plasma, 1.5% edasalonexent in diet (group 1), from seventh day of dosing",22.4 ng/mL
